ChEMBL document CHEMBL1201862, “PubChem BioAssay data set” (2004)
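In this assay, cells in 96-well plates receive the compound at five concentrations for 48 hours. Endpoints are linearly interpolated between the surrounding concentrations. GI50 = concentration required for 50% inhibition of growth.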 Activity calls are given as the source filed them. Cut-off read from the data, not from the text of the source: active = GI50 up to about 1.1 µM and inactive = higher.

Assays:
Test in all cases: NCI-60 cell line screen, 48 h
[1] = tested on: SR
[2] = tested on: SW-620
[3] = tested on: SNB-78
[4] = tested on: SK-MEL-28
[5] = tested on: A498
[6] = tested on: OVCAR-3
[7] = tested on: SNB-19
[8] = tested on: SNB-75
[9] = tested on: U-251
[10] = tested on: RXF 393
[11] = tested on: A549
[12] = tested on: KM12
[13] = tested on: Malme-3M
[14] = tested on: SF-295
[15] = tested on: SF-539
[16] = tested on: K562
[17] = tested on: NCI-H522
[18] = tested on: UO-31

Measured: GI50

CCC1=NC(CO)[C@H](c2ccccc2)O1 (some centres undefined)
inactive: [1] > 100 µM | [2] > 100 µM | [3] > 100 µM | [4] > 100 µM | [5] > 100 µM | [6] > 100 µM | [7] > 100 µM | [8] > 100 µM | [9] > 100 µM | [10] > 100 µM | [11] > 100 µM | [12] > 100 µM | [13] > 100 µM | [14] > 100 µM | [15] > 100 µM | [16] > 100 µM

O=C1C=C(Nc2ccccc2C(=O)CC(=O)C(=O)Nc2ccc(Cl)c(Cl)c2)c2ccccc2C1=O
inactive: [1] 5 µM | [3] 5.31 µM | [4] 10.6 µM | [5] > 100 µM | [6] 34.4 µM | [7] 37.5 µM | [9] 34.7 µM | [10] 71.3 µM | [17] 18.6 µM | [11] 53.1 µM | [12] 59.6 µM | [13] 12.6 µM | [14] 59 µM | [15] 51.2 µM | [16] 12.2 µM | [18] 50.7 µM

COc1ccc2c([nH]c3c(O)c(-c4c(C)cc5c([nH]c6c(CC=C(C)C)c(OC)ccc65)c4O)c(C)cc32)c1CC=C(C)C [BISMURRAYAFOLINE B]
inactive: [1] > 100 µM | [2] > 100 µM | [3] > 100 µM | [4] > 100 µM | [5] > 100 µM | [6] > 100 µM | [7] > 100 µM | [8] > 100 µM | [9] > 100 µM | [10] > 100 µM | [17] > 100 µM | [11] > 100 µM | [12] > 100 µM | [13] > 100 µM | [14] > 100 µM | [15] > 100 µM | [16] > 100 µM | [18] > 100 µM

N#Cc1cccc(/C=N/C23CC4CC(CC(C4)C2)C3)c1
inactive: [1] 76.2 µM | [2] > 100 µM | [3] > 100 µM | [4] > 100 µM | [5] > 100 µM | [6] > 100 µM | [7] > 100 µM | [8] > 10 µM | [9] > 100 µM | [10] > 100 µM | [17] > 100 µM | [11] > 100 µM | [12] > 100 µM | [13] > 100 µM | [14] > 100 µM | [15] > 100 µM | [16] 38.4 µM | [18] > 100 µM

CC1CC(c2ccc([N+](=O)[O-])cc2)=Nc2ccccc2S1 (centres undefined)
inactive: [1] 5.09 µM | [2] 15.6 µM | [3] 67.5 µM | [4] 17.9 µM | [5] 19 µM | [6] 11.5 µM | [7] 16.7 µM | [8] 37.6 µM | [9] 15.2 µM | [10] 17.5 µM | [17] 20.3 µM | [11] 21.9 µM | [12] 12.6 µM | [13] 35.9 µM | [14] 19.1 µM | [15] 16.9 µM | [16] 6.04 µM | [18] 11.8 µM

C/C(=N\N(C)C)C(CN1CCCCC1)C(c1ccccc1)c1c(O)c2ccccc2oc1=O (centres undefined)
inactive: [1] > 100 µM | [2] > 100 µM | [3] > 100 µM | [4] > 100 µM | [5] > 100 µM | [6] > 100 µM | [7] > 100 µM | [8] 28.3 µM | [9] > 100 µM | [10] > 100 µM | [17] > 100 µM | [11] > 100 µM | [12] > 100 µM | [13] > 100 µM | [14] > 100 µM | [15] > 100 µM | [16] > 100 µM | [18] 32.6 µM

CCCCCCCCCCCC(=O)OCC1OC(n2cc(F)c(=O)[nH]c2=O)C(N)C(O)C1O (centres undefined)
inactive: [1] 81.7 µM | [2] > 100 µM | [3] > 100 µM | [4] > 100 µM | [5] > 100 µM | [6] > 100 µM | [7] 57.9 µM | [8] > 100 µM | [9] 79.1 µM | [10] > 100 µM | [17] 75.3 µM | [11] > 100 µM | [12] 77.4 µM | [13] > 100 µM | [14] > 100 µM | [15] > 100 µM | [16] 32.2 µM | [18] > 100 µM

NC(=O)N/N=C(\C(=O)C(=O)Nc1ccc(Cl)c(C(F)(F)F)c1)c1nc2ccc(C(=O)c3ccccc3)cc2nc1O
inactive: [1] 45.7 µM | [2] > 100 µM | [3] 76.6 µM | [4] > 100 µM | [5] 36.9 µM | [7] > 100 µM | [9] > 100 µM | [10] 66.4 µM | [17] 46.6 µM | [11] > 100 µM | [12] 77.6 µM | [13] > 100 µM | [14] > 100 µM | [15] > 100 µM | [16] 48.4 µM | [18] 31.6 µM

O=C(O)CP(=S)(S)c1ccccc1 (centres undefined)
inactive: [1] > 100 µM | [2] > 100 µM | [3] > 100 µM | [4] > 100 µM | [5] > 100 µM | [7] > 100 µM | [9] > 100 µM | [10] > 100 µM | [17] > 100 µM | [11] > 100 µM | [12] > 100 µM | [13] > 100 µM | [14] > 100 µM | [15] > 100 µM | [16] > 100 µM | [18] > 100 µM

CCOC(=O)c1cnc2oc(-c3ccc(OC)cc3)nn2c1=O
inactive: [1] > 10 µM | [2] > 100 µM | [3] > 100 µM | [4] > 100 µM | [6] > 100 µM | [7] > 100 µM | [8] 45.3 µM | [9] > 100 µM | [10] 93.1 µM | [17] 79.1 µM | [11] > 100 µM | [12] > 100 µM | [13] > 100 µM | [14] > 100 µM | [15] > 100 µM | [16] > 100 µM | [18] > 100 µM

c1cc2c(cnc3cscc32)s1
inactive: [1] > 100 µM | [2] > 100 µM | [3] > 100 µM | [4] > 100 µM | [5] > 100 µM | [6] > 100 µM | [7] > 100 µM | [8] 57.7 µM | [9] > 100 µM | [10] > 100 µM | [17] > 100 µM | [11] > 100 µM | [12] > 100 µM | [13] > 100 µM | [14] > 100 µM | [15] > 100 µM | [16] > 100 µM | [18] > 100 µM
